# According to patent publication US20240108740A1, “THERAPEUTIC COMPOSITIONS INCLUDING SPN10 AND USES THEREOF” (Stealth BioTherapeutics Inc., priority 2022, published 2024):
# Residues, ends and D or L forms follow the SMILES beside them.
# Legend:
# [1] = tested on: male C57BL mice; experiment: Example 46: burn-induced liver apoptosis; type: in vivo, mouse
# Procedure: Six-to-eight week old male C57BL mice will be subjected to 30% total body surface (TBSA) burn injury and subsequently injected daily with saline vehicle; peptide conjugates (5 mg/kg body weight); aromatic-cationic peptides (an equivalent molar dose of aromatic-cationic peptide based on the concentration of the aromatic-cationic peptide administered in the peptide conjugate treatment group); SPN10(s) (an equivalent molar dose of SPN10 based on the concentration of SPN10 administered in the peptide conjugate treatment group); or SPN10(s) in combination with aromatic-cationic peptides (e.g., an equivalent molar dose of SPN10 based on the concentration of SPN10 administered in the peptide conjugate treatment group and an equivalent molar dose of aromatic-cationic peptide based on the concentration of aromatic-cationic peptide administered in the peptide conjugate treatment group). A weight- and time-matched sham-burn group exposed to lukewarm (˜37° C.) will serve as controls. Liver tissues will be collected 1, 3, and 7 days after burn injury treatment and analyzed for apoptosis (TUNEL), activated caspase levels (Western blot), and caspase activity (enzymatic assay).
# [2] = tested on: Isolated mouse pancreatic islet cells; experiment: Example 30: oxidative damage in pancreatic islet cells; type: cell-based; details: 25 μM t-BHP
# Procedure: Isolated mouse pancreatic islet cells will be treated with 25 μM t-BHP alone or in the presence of peptide conjugates, aromatic-cationic peptides, or SPN10(s) with or without aromatic-cationic peptides. Mitochondrial membrane potential will be measured by TMRM (red) and reactive oxygen species will be measured by DCF (green) using confocal microscopy.
# [3] = tested on: mouse peritoneal macrophages; experiment: Example 1: oxLDL-induced CD36 expression and foam cell formation; type: cell-based
# Procedure: Other controls will include CD36 expression from mouse heart (H) and macrophages obtained from CD36 knockout mice (KO). The amount of CD36 protein will be normalized to β-actin.
# Incubation of macrophages with oxLDL for 48 hours is also anticipated to increase foam cell formation. Foam cell will be visualized by oil red O, which stains lipid droplets red.
# Incubation of macrophages with oxLDL is anticipated to increase the percentage of apoptotic cells.
# [4] = tested on: Gαq mice; experiment: Gαq overexpression-induced heart failure; type: in vivo, mouse; details: administered from 12 to 16 weeks of age
# Description: It is anticipated that peptide conjugates, aromatic-cationic peptides or SPN10(s) (with or without aromatic-cationic peptides) will partially rescue Gαq overexpression-induced heart failure. Gαq protein is coupled to receptors for catecholamines and Ang II, all of which are known to be key mediators in hypertensive cardiovascular diseases. To extend these observations to a model of chronic catecholamine/Ang II stimulation, a genetic mouse model with cardiac specific overexpression of Gαq will be used, which causes heart failure in mice by 14-16 weeks of age. The Gαq mice in this study will have impairment of systolic function at 16 weeks age, which will be shown by a substantial decline in FS, with enlargement of the LV chamber, impairment of diastolic function indicated by decreased Ea/Aa, and worsening of myocardial performance index (MPI).
# [5] = tested on: Sprague Dawley rats; experiment: Example 37: acute renal injury caused by ischemia-reperfusion; type: in vivo, rat
# Procedure: […] Sprague Dawley rats (250-300 g) will be assigned to one of the following groups: (1) sham surgery (no I/R); (2) I/R+saline vehicle; (3) I/R+peptide conjugates; (4) I/R+aromatic-cationic peptides; (5) I/R+SPN10(s); (6) I/R+SPN10(s) and aromatic-cationic peptides. Peptide conjugates (3 mg/kg in saline); aromatic-cationic peptides (an equivalent molar dose of aromatic-cationic peptide based on the concentration of the aromatic-cationic peptide administered in the peptide conjugate treatment group); SPN10(s) (an equivalent molar dose of SPN10 based on the concentration of SPN10 administered in the peptide conjugate treatment group) or SPN10(s) in combination with aromatic-cationic peptides (e.g., an equivalent molar dose of SPN10 based on the concentration of SPN10 administered in the peptide conjugate treatment group and an equivalent molar dose of aromatic-cationic peptide based on the concentration of aromatic-cationic peptide administered in the peptide conjugate treatment group) will be administered 30 minutes before ischemia and immediately before reperfusion. Control animals will be given saline alone according to the same schedule.
# Rats will be anesthetized with a mixture of ketamine (90 mg/kg, i.p.) and xylazine (4 mg/kg, i.p.). […] Renal function will be determined by measuring levels of blood urea nitrogen (BUN) and serum creatinine (BioAssay Systems DIUR-500 and DICT-500).
# Renal Morphologic Examination: Kidneys will be fixed in 10% neutral-buffered formalin and embedded in paraffin wax for sectioning. Three-micron sections will be stained with hematoxylin-eosin (H&E) and periodic acid-Schiff (PAS), and analyzed by light microscopy. Lesions will be scored based on 1) mitosis and necrosis of individual cells, 2) necrosis of all cells in adjacent proximal convoluted tubules with survival of surrounding tubules, 3) necrosis confined to the distal third of the proximal convoluted tubule with a band of necrosis extending across the inner cortex, and 4) necrosis affecting all three segments of the proximal convoluted tubule. […]
smiles,measurement,setting,value
"N=C(N)NCCC[C@H](NC(=O)[C@@H](N)Cc1c[nH]c2ccccc12)C(=O)N[C@@H](Cc1c[nH]c2ccccc12)C(=O)N[C@@H](CCCCN)C(N)=O [SPN10, H-L-Trp-L-Arg-L-Trp-L-Lys-NH2] (H-WRWK-NH2)",rate of apoptosis in the liver after burn (TUNEL),"[1]; 30% TBSA burn, days 1, 3, 7",attenuate or prevent this effect
same,protein oxidation following burn injury,[1]; compared to burn control subjects,decrease in protein oxidation
same,caspase-3 activation (Western blot),[1]; days 3 and 7 post-burn,attenuate or suppress caspase-3 activation
same,caspase activity (enzymatic assay),[1]; post-burn day 7,reduce caspase activity to a level not statistically different from that of sham control group
same,oxidative damage in isolated pancreatic islet cells,[2],protect against oxidative damage
same,percentage of apoptotic cells induced by oxLDL,[3],significantly reduce the percentage of apoptotic cells
same,up-regulation of CD36 protein levels by oxLDL,"[3]; 25 μg/mL oxLDL, 48 hours",significantly inhibit the up-regulation of CD36 protein levels
same,CD36 protein levels (western blot),[3]; compared to vehicle control (V),significantly reduce CD36 protein levels
same,oxLDL-induced up-regulation of CD36 mRNA,"[3]; oxLDL 50 μg/mL, 48 hours",abolish the up-regulation of CD36
same,oxLDL-induced foam cell formation (oil red O),"[3]; oxLDL, 48 hours",prevent oxLDL-induced foam cell formation
same,LV chamber enlargement,[4],slightly reduced
same,systolic function and myocardial performance,[4],significantly ameliorate systolic function and improve myocardial performance
same,BUN and serum creatinine values,"[5]; 30 minutes before ischemia and immediately before reperfusion, 24 hours of reperfusion",improve BUN and serum creatinine values
same,tubular cell apoptosis after ischemia and reperfusion,"[5]; rat, in vivo",prevent tubular cell apoptosis
same,tubular cell injury after ischemia and reperfusion,"[5]; rat, in vivo",prevent tubular cell injury
